{"source": "patent US7767658B2", "about": "(priority 2003, dated 2010)", "key": {"[1]": {"system": "spleen cells secreting γ-interferon", "assay_type": "in vivo, BALB/c mice", "conditions": "after restimulation with inactivated SARS virus; in response to some of the peptides used"}, "[2]": {"system": "spleen cells stimulated with the whole inactivated virus", "assay_type": "in vivo, BALB/c mice", "conditions": "after stimulation with inactivated virus; mice given ethyl DOPC in addition to the antigen"}}, "data": [{"smiles": "CCCCCCCC/C=C\\CCCCCCCC(=O)OC[C@@H](COP(=O)(OCC)OCC[N+](C)(C)C)OC(=O)CCCCCCC/C=C\\CCCCCCCC", "note": "(stereo partly drawn) [ethyl DOPC, 1,2-dioleoyl-sn-glycero-3-ethylphosphocholine]", "values": [{"measurement": "production of γ-interferon (ELISPOT after restimulation)", "setting": "[1]", "result": "increased"}, {"measurement": "production of IL-5 (in words)", "setting": "[2]", "result": "not clearly modified"}, {"measurement": "production of γ-IFN (in words)", "setting": "[2]", "result": "considerably increased"}]}]}
